# Data from patent publication US20150297619A1, “METHODS AND COMPOSITIONS FOR PRESERVING THE MUCOSAL BARRIER” (priority 2014, published 2015).
# Experiments:
# intestinal villi = test: Morphological analysis of intestinal villi after ex vivo ischemia (Van Gieson/hematoxylin); design: species or system rat; settings: for intestinal villi structure: jejunum and ileum after 2 hrs ex vivo ischemia
# Experimental: After the two-hour ischemic incubation, intestinal pieces from segments 2 (jejunum) and 7 (ileum) were embedded in O.C.T. (Tissue Tek, Torrance, Calif.) and snap frozen in t-methyl butane in liquid nitrogen. Intestine samples from segments 2 and 7 (for protease analysis) and segment 7 (for immunoblots) were snap frozen and stored for subsequent homogenization. Morphological Analysis and TUNEL Labeling—Intestinal segments frozen in O.C.T. were cut into 5 μm sections. Sections were fixed using ice-cold methanol (8 min at −20° C.) and immediately washed four times in distilled water. Nuclei were stained by incubating sections in freshly mixed Weigert's Iron Hematoxylin A and B (Electron Microscopy Science, Hatfield, Pa.) (10 min) followed by rinsing thoroughly with water. Collagen fibers were labeled by incubating (2 min) in Van Gieson's Solution (Electron Microscopy Science). Prior to mounting, all slides were dehydrated (70, 95, 100% ethanol) and cleaned with xylene. After air-drying overnight, sections were mounted using Hard Set Mounting Media (Vector Laboratories, Burlingame, Calif.). Digital images were captured with a 20× objective (numerical aperture 0.5) and digitally montaged together after background subtraction. The separation of the mucosal epithelial layer was quantified for groups that had intact villi following the two hour ischemic period. Images were blinded and the distance between the mucosal epithelial layer and the lamina propria was measured over five lengths across a minimum of 6 villi.
# [1] = test system: mucin 13, occludin, and E-cadherin; test: Immunoblots of epithelial barrier proteins in post-ischemic intestinal homogenates (segment 7); design: species or system rat; settings: ileum segment 7, two hour ex vivo ischemia
# Experimental: Immunoblotting—To determine whether selected epithelial barrier proteins were degraded during ischemia, pre- and post-ischemic intestinal tissue homogenates (segment 7) were analyzed for relative levels of mucin 13, occludin, and E-cadherin.
# Tissues were homogenized for immunoblot analysis in buffer (CelLytic, Sigma-Aldrich) with protease inhibitor cocktail (HALT, Thermo Scientific, 1:100 dilution) and centrifuged (1×10^4 g, 20 min). Protein concentration in supernatants was determined (BCA, ThermoScientific). To separate proteins by gel electrophoresis, 30 μg of protein/well were loaded in 8 or 12% resolving gels with 4% stacking gels and transferred to nitrocellulose membranes (Bio-Rad, Hercules, Calif.). Membranes were blocked for one hour with either 5% bovine serum albumin (BSA) or 5% nonfat milk in tris-buffered saline with 0.5% Tween-20 (TBS-T). Primary antibodies diluted in 1% BSA or 1% nonfat milk against mucin 13 (1:1000, extracellular domain, sc-66973 Santa Cruz Biotechnology, Santa Cruz, Calif.), E-cadherin (1:1000, intracellular domain, 33-4000, Invitrogen), occludin (1:1000, intracellular domain, 33-1500, Invitrogen), pancreatic trypsin (1:1000, sc-137077 Santa Cruz Biotechnology), or β-actin (1:1000, sc-130301, Santa Cruz Biotechnology) were incubated overnight at 4° C. After incubation, membranes were washed with TBS-T (3×, 10 min) before addition of goat anti-rabbit or rabbit anti-mouse secondary antibodies (Santa Cruz Biotechnology) diluted 1:1000 in TBS-T. Following secondary antibody incubation (60 min), the membranes were washed with TBS-T (3×) and developed.
# hemorrhagic shock = test: Hemorrhagic shock model with enteral pretreatment, unflushed intestine (Example 1); type: in vivo, rat; settings: for lesions in the jejunum (gross morphology): enteral pretreatment, HS 90 min at 30 mmHg, 3 hours observation; for rate of MAP decrease during reperfusion: last 2 hours of reperfusion, mean±SD
# Experimental: Hemorrhagic Shock Model—Hemorrhagic shock (HS) was used to study the ability of treatments, shown in the ex vivo portion of the study to preserve the barrier and protect the intestine in the absence of luminal content, to prevent intestinal injury after ischemia/reperfusion injury in vivo when luminal content is present. Following general anesthesia, the femoral artery and vein were cannulated. Systolic, diastolic, heart rate, and mean arterial pressure (MAP) were recorded throughout the procedure using LabChart (AD Instruments, Dunedin, New Zealand). Rats were randomly divided into the following groups: […] No-HS animals were cannulated and immediately sacrificed for tissue collection. In the HS groups, anesthetized rats were subjected to laparotomy and the intestine was exposed, and a “Pre-HS” image was captured. […] Extra caution was applied to avoid over-inflation of the intestine. After injection, the intestine was carefully returned to the peritoneal cavity and the wound was covered with moist gauze and plastic wrap to keep the animal warm. To prevent clotting in catheters and shed blood, animals were heparinized (1 U/ml i.v., assuming 6% blood volume per body weight) prior to inducing hemorrhagic shock. […] At the end of ischemia, the shed blood was returned to the animal (0.5 ml/min). […] Gross morphology images of the intestine were captured, “Post-HS” At the end of reperfusion, segments of intestine (jejunum; 10 cm from ligament of Treitz) were snap frozen for homogenization and embedded in O.C.T. (Tissue Tek). MPO Activity—Myeloperoxidase (MPO) activity in the intestine as a measure for neutrophil accumulation was selected as an index of reperfusion injury after hemorrhagic shock. Segments from the jejunum (about at the position of segment 2 in the ex vitro study) were homogenized with their native luminal contents (PBS pH 6.0 in 0.5% HTAB). 40 μl of 2 mg/ml intestine homogenate was added to 180 μl of PBS (pH 6.0) mixed with 0.167 mg/ml o-dianisidine dihydrochloride (Sigma-Aldrich) in duplicate and 0.001% H2O2 (w/v). Absorbance was measured kinetically at 450 nm every 5 minutes for 1 hour at 37° C. As negative controls, 180 μl of PBS (pH 6.0) was added to 20 μl of sample and the absorbance values of these samples were subtracted from the measurements with the substrate. The change in absorbance was linear within this period, and MPO activity is presented as the change in absorbance per minute per milligram of protein.
SMILES,intestinal villi structure (intestinal villi),mucin 13 levels (immunoblot) [1],occludin levels (immunoblot) [1],lesions in the jejunum (gross morphology) (hemorrhagic shock),rate of MAP decrease during reperfusion (hemorrhagic shock),"separation between the lamina propria and the mucosal epithelial layer (intestinal villi; jejunum, after 2 hrs ex vivo ischemia)",E-cadherin levels (immunoblot) [1]
NC[C@H]1CC[C@H](C(=O)O)CC1 [tranexamic acid],did not prevent the villi destruction,able to preserve mucin 13 levels,prevented a significant decrease in occludin,had lesions form in the jejunum,−0.27±0.16 mmHg/min,–,–
"O=C[C@H](O)[C@@H](O)[C@H](O)[C@H](O)CO [Glucose, glucose]",attenuated,preserved,preserved,had lesions form in the jejunum,−0.21±0.13 mmHg/min,still observed,decreased irrespective of the presence of glucose
